In patent US11890356B2 (The General Hospital Corporation, priority 2017, dated 2024):
Values belong to the compound of their own block, whether it stands above or below them.

How the values were obtained:
[1] = tested on: acetylation state of α-Tubulin and histones (H3K9 and H4K12); assay: Acetylation level assay (Western blot) in human iPSC-derived neural progenitor cells; format: cell-based; conditions: ACY1215 5 μM, other compounds 10 μM; 6 h at 37° C.
[2] = Hepatocyte stability; conditions: hu
[3] = target: T1, HDAC6 (Rattus norvegicus (Rat), UniProt A0A8I6GM68); assay: Autoradiography competition with radiolabeled Example 2 on rat brain slices; format: binding, Sprague-Dawley rat
Method: Sagittal slices of Sprague-Dawley rat brains were sectioned (10 μm) with a cryostat (Thermo Scientific HM550) and mounted onto ColorFrost Plus microscope slides (Fisher Scientific 12-550-18) and stored at −20° C. […] After 15 min, 50 μCi of the radiolabeled compound of Example 2 was added to each bath. After 15 minutes, all slides were washed by dipping 10× into buffer and subsequently submerged in 50 mL baths of buffer at 4° C. for 5 minutes. The slides were dried at 35° C. in a vacuum chamber. A phosphorus screen (Perkin Elmer 7001723) was exposed with the slides for 45 minutes and subsequently imaged with a Cyclone Plus Storage Phosphor (Perkin Elmer) detector. ImageJ was used to apply a Gaussian blur (3.0 radius) smoothing and a lookup table (Royal) with equivalent thresholds for brightness was applied. Raw intensity values from gray and white matter were quantified with the ImageJ measurement tool.

[4] = Microsome stability; conditions: hu
[5] = target: T1, HDAC6; assay: PET/CT imaging in rats with radiolabeled Example 2; format: in vivo, Sprague-Dawley rats
Method: 8 male Sprague-Dawley rats (Charles River Laboratories) were used for PET imaging. […] For intravenous administration, a catheter with an extension line was placed in a lateral tail vein. Each animal received a bolus injection of either vehicle (1:1:8 DMSO/Tween80/saline) or blocking agent in solution (1 mg/kg, 1 mg/mL in 1:1:8 DMSO/Tween80/saline) immediately prior to injection of the radiotracer.
After injection of a radiotracer bolus (˜700 ρCi Example 2) a 90 min dynamic PET scan was acquired in pairs for all animals. PET scans were performed on a GammaMedica Triumph PET/CT/SPECT scanner, corrected for attenuation with a μ-map derived from the corresponding CT image, which was acquired immediately following the PET scan. The dynamic PET data was binned into 38 timeframes (8×15 s, 8×1 min, 10×2 min, 12×5) and reconstructed individually via an iterative MLEM (maximum likelihood expectation maximization) algorithm in 16 iterations.
PET images were coregistered to the CT image acquired from the same animal using AMIDE Data sets were cropped and all further image analysis was conducted using PMOD 3.3 (PMOD Technologies, Zurich, Switzerland). For maximum consistency, the data were coregistered to the Schiffer Px Rat rat brain template and data was derived from a whole brain VOI (volumes of interest) for time activity curves.

[6] = target: HDAC6 (Homo sapiens (Human), UniProt Q9UBN7); assay: HDAC IC50 assay by Nanosyn (Caliper microfluidics mobility shift detection); format: biochemical
Chain of HDAC6 (Homo sapiens (Human), UniProt Q9UBN7) (Q9UBN7 whole entry): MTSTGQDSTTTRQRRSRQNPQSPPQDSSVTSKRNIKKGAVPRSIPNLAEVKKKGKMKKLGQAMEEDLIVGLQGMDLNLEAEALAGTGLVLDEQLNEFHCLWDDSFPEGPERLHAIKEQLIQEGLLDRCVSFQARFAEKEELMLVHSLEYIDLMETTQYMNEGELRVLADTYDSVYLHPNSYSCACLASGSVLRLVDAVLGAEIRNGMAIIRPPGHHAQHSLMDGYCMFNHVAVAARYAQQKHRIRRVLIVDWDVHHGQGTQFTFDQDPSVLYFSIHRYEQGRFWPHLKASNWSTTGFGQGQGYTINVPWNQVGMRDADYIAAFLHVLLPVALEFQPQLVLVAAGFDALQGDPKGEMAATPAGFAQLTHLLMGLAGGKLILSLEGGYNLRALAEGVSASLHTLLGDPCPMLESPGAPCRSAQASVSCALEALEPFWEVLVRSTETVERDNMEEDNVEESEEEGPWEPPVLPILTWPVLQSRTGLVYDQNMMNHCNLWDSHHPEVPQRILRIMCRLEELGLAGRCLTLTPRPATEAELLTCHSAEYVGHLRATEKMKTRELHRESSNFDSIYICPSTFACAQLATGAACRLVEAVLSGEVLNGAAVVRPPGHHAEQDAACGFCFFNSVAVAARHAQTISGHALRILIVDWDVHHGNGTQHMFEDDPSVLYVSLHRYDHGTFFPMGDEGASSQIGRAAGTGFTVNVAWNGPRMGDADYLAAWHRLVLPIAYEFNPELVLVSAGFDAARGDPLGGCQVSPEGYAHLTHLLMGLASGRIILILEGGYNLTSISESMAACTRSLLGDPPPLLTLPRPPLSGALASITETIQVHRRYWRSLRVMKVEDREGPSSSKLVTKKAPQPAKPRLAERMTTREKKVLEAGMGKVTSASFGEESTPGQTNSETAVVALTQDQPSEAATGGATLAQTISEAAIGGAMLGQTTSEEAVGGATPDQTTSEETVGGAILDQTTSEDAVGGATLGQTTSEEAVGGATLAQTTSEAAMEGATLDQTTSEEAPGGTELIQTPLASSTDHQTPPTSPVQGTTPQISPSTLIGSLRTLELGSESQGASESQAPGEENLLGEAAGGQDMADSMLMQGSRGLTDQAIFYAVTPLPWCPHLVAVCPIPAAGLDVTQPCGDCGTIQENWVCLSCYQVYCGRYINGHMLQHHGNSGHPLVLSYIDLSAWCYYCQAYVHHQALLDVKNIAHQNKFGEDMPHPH

T1 sequence (A0A8I6GM68 whole entry): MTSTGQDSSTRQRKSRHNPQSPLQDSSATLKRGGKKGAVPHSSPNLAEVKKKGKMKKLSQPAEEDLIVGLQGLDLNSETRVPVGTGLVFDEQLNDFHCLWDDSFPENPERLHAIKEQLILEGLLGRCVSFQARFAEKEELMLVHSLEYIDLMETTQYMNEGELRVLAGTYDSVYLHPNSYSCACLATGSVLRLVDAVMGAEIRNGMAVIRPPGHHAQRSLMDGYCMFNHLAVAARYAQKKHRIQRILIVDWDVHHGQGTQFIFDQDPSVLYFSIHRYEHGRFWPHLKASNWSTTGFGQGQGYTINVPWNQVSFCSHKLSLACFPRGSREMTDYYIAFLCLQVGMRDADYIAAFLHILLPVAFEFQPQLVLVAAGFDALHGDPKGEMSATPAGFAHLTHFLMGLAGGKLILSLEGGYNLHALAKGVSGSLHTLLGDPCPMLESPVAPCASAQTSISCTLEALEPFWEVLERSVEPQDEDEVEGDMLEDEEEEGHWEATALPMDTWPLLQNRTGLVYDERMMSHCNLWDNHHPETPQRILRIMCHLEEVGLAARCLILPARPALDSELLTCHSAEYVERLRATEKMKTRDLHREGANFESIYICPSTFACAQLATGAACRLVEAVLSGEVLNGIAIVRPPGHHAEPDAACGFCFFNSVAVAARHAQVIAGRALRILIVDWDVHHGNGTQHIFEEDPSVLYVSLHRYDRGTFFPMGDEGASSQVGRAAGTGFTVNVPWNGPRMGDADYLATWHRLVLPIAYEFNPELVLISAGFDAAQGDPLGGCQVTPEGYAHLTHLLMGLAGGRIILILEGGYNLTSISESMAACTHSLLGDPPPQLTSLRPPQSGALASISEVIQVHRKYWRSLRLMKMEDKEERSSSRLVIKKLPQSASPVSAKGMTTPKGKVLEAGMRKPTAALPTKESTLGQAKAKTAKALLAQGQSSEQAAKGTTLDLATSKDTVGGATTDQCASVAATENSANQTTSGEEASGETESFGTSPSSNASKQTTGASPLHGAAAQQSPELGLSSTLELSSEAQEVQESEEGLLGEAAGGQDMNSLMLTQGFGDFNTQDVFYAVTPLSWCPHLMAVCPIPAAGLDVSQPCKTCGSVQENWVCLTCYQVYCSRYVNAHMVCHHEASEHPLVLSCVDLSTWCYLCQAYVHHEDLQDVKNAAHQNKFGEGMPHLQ

Compound: O=C(CCCCCCNC(=O)c1cnc(N(c2ccccc2)c2ccccc2)nc1)NO [ACY-1215, ricolinostat]
Histone acetylation on H4K12 [1]: significantly increased | amount of cellular acetyl-α-Tubulin [1]: increased

Compound: CC(=O)Nc1ccc(C(=O)Nc2ccccc2N)cc1 [CI-994, tacedinaline]
Histone acetylation on H3K9 [1]: significantly increased | Histone acetylation on H4K12 [1]: significantly increased | amount of cellular acetyl-α-Tubulin [1]: did not increase

Compound: CN(Cc1ccc(C(=O)NO)cc1F)CC12CC3CC(CC(C3)C1)C2 [Example 1, 4-(((((3s)-Adamantan-1-yl)methyl)(methyl)amino)methyl)-3-fluoro-N-hydroxybenzamide]
Hepatocyte stability (half-life, min) [2]: 20 (hu) min | Histone acetylation on H3K9 [1]: remained unaltered | Histone acetylation on H4K12 [1]: remained unaltered | amount of cellular acetyl-α-Tubulin [1]: increased | binding of radiolabeled Example 2 to rat brain slices in presence of competitor ([3]; competitor at 1 μM): significantly reduced | Microsome stability (half-life, min) [4]: 19 min | effect of pretreatment on brain uptake of radiolabeled Example 2 ([5]; 1 mg/kg immediately prior to radiotracer): blocking of brain uptake | effect on time activity curve of radiolabeled Example 2 ([5]; 1 mg/kg, 30-minutes post radiotracer administration): clear deflection of the time activity curve

Compound: CN(Cc1ccc(C(=O)NO)cc1[18F])CC12CC3CC(CC(C3)C1)C2 [Example 2, 4-((((Adamantan-1-yl)methyl)(methyl)amino)methyl)-3-[^18F]fluoro-N-hydroxybenzamide]
brain uptake and retention ([5]; PET, radiotracer iv bolus): excellent | off-rate in preclinical PET ([5]; rat, in vivo): slow

IC50 [6]: 290 nM
Compound: CC(CC12CC3CC(CC(C3)C1)C2)N(C)Cc1ccc(C(=O)NO)cc1 (centres unmarked) [Example 20]

Compound: CN1CCc2c(c3ccccc3n2Cc2ccc(C(=O)NO)cc2)C1 [Tubastatin A]
Histone acetylation on H3K9 [1]: remained unaltered | Histone acetylation on H4K12 [1]: remained unaltered | amount of cellular acetyl-α-Tubulin [1]: increased | binding of radiolabeled Example 2 to rat brain slices in presence of competitor ([3]; competitor at final concentration of 100 μM): reduce the amount of bound radioactivity to the same background as 10 μM Example 1
